# In ChEMBL document CHEMBL1201862, “PubChem BioAssay data set” (2004):
# Calls of active or inactive are those of the source. Rule as the data show it, for most assays here: actives have a measured EC50 and inactives only a lower limit.
# Key:
# [1] = molecular target: T1, Endoribonuclease toxin MazF (Escherichia coli K-12, UniProt P0AE70); test: fluorescent RNA oligo signal without MazF, dose response, counter-screen for MazEF activator project, biochemical, fluorescence, single-stranded RNase substrate (AID 588502); type: functional
# T1 sequence (P0AE70 whole entry): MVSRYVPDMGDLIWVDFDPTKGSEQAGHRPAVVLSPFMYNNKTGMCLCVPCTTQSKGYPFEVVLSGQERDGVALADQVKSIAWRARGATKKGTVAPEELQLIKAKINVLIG
# [2] = molecular target: T1, Endoribonuclease toxin MazF; test: MazF toxin RNase activators, dose response, biochemical, fluorescence, single-stranded RNA substrate, uHTS hits (AID 588481); type: functional
# Protein Wnt-3a = Protein Wnt-3a (Mus musculus, UniProt P27467); test: Wnt3a-driven reporter signaling inhibition, dose response, selectivity assay for Gli-SUFU antagonist project, Wnt-LIGHT cells, luminescence (AID 651570); type: functional; conditions: read-out: IC50_Mean;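 also: Wnt-LIGHT reporter cells stimulated with conditioned medium from Wnt3a-producing cells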
# Sequence of Protein Wnt-3a (P27467 whole entry): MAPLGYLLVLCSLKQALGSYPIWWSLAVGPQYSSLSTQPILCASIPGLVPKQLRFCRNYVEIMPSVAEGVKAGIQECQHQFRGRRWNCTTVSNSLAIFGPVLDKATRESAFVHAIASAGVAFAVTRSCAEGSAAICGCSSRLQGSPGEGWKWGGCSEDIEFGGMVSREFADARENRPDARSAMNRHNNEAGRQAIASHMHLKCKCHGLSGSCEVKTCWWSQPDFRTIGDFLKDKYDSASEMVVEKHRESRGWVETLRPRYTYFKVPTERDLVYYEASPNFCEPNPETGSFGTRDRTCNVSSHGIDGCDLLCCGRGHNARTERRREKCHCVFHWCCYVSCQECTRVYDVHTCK
# Streptococcus = test: Group A Streptococcus viability loss, dose response, counter-screen for streptokinase expression inhibitor project, luminescence, BacTiterGlo (AID 1915); type: functional, organism-based;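 also: potency for reduction of bacterial viability or growth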
# [3] = system: Streptococcus sp. 'group A'; test: growth inhibition of control SK(-) GAS strain, dose response, counter-screen for streptokinase expression inhibitor project, luminescence, kanamycin, BacTiterGlo, confirmation (AID 1900); type: functional, organism-based
# [4] = molecular target: T2, Serine/threonine-protein phosphatase (Candida dubliniensis (strain CD36 / CBS 7987 / NCPF 3949 / NRRLY-17841) (Yeast), UniProt B9W6M3); test: calcineurin pathway inhibitors in yeast reporter, dose response, S. cerevisiae, CDRE-lacZ, luminescence, secondary (AID 2388); type: functional, cell-based;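 also: yeast reporter cells carrying a calcineurin-responsive lacZ construct stimulated with calcium chloride; luminescent beta-galactosidase reporter signal in whole cells rather than isolated phosphatase activity; potency for inhibition where a drop in reporter signal means calcineurin blockade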
# T2 sequence (B9W6M3 whole entry): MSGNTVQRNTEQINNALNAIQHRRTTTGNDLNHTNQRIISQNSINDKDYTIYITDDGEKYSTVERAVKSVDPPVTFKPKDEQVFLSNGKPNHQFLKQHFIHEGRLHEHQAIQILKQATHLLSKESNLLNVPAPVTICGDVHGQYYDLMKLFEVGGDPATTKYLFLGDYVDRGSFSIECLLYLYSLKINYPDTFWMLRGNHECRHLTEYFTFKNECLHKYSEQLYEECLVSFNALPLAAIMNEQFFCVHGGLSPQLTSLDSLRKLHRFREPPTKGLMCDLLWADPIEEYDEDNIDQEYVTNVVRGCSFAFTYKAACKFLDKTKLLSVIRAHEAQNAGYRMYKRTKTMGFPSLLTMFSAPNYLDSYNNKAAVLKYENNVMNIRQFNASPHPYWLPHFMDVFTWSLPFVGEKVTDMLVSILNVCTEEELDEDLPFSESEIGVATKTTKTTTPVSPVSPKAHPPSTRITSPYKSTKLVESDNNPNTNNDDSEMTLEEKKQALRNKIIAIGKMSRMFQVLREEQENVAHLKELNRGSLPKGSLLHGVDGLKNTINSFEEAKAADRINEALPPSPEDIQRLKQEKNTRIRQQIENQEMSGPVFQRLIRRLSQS
# [5] = molecular target: ATP-dependent molecular chaperone HSP82 (Candida albicans (strain WO-1) (Yeast), UniProt C4YTQ8); test: loss of DOC-induced GRE-beta-galactosidase reporter signal, dose response, Hsp90 inhibitor project, S. cerevisiae, luminescence (AID 2400); type: functional, cell-based;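 also: beta-galactosidase luminescence from glucocorticoid response element reporter as proxy for Hsp90 function; inhibitor potency where signal loss means Hsp90 inhibition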
# Sequence of ATP-dependent molecular chaperone HSP82 (C4YTQ8 whole entry): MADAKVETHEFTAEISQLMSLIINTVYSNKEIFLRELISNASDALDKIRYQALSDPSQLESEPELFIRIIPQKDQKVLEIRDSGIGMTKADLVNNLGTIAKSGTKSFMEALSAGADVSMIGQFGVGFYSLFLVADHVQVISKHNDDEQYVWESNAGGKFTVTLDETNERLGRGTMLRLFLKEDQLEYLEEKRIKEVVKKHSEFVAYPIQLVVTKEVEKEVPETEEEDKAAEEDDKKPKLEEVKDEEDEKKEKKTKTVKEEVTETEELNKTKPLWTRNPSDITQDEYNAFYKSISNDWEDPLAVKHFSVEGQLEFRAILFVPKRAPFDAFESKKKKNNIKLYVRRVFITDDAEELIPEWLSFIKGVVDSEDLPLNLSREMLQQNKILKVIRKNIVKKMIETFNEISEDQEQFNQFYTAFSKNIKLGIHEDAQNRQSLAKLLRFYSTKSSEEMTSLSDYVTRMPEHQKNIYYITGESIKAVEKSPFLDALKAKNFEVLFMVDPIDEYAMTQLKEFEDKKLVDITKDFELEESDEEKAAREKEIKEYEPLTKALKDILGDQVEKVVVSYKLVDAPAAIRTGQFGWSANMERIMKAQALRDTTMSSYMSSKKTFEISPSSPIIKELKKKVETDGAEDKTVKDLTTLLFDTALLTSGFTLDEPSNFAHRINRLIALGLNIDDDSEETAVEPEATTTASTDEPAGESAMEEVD
# Streptokinase A = molecular target: T3, Streptokinase A (Streptococcus pyogenes serotype M1, UniProt P10520); test: S. pyogenes streptokinase expression inhibitors, potency, dose response, plasminogen activation absorbance, OD405 (AID 1914); type: functional, Streptococcus pyogenes M1 GAS;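 also: secreted streptokinase activity via plasminogen activation per viability signal from cell pellet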
# T3 sequence (P10520 whole entry): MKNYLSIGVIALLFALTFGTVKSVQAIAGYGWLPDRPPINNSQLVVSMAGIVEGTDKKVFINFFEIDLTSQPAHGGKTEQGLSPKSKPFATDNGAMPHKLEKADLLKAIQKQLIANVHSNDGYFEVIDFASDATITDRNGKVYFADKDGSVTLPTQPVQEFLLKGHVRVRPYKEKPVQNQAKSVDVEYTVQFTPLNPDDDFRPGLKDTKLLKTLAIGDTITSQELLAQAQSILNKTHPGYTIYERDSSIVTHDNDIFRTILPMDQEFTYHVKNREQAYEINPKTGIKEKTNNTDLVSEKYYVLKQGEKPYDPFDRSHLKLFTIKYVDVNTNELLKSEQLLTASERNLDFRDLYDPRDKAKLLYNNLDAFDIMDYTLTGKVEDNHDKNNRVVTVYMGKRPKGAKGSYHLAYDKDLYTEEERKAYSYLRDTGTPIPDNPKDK
# [6] = NIH-3T3 fibroblast cytotoxicity, dose response, cytotoxicity control, cell-based, fluorescence, Alamar Blue, secondary assay (AID 2327); type: functional;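 also: NIH-3T3 mouse fibroblasts cultured with fluconazole at 8 µg/mL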
# [7] = C. albicans growth with fluconazole, confirmation, fluorescence, retest (AID 2467); type: functional, cell-based
# BJ [8] = test: cytotoxicity toward Ras-transformed BJeLR fibroblasts, dose response, cell-based, alamar blue fluorescence, cherrypicked samples (AID 2631); type: functional; conditions: Homo sapiens;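 also: confirmatory dose-response assay in RAS-dependent BJ fibroblasts engineered with TERT, LT and ST, with cytotoxicity read by fluorescence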
# BJ [9] = test: cytotoxicity toward BJ-TERT fibroblasts, dose response, cell-based, RAS-independent, luminescence (AID 1933); type: functional; conditions: Homo sapiens
# BJ [10] = test: cells; type: functional, cell-based, Homo sapiens; conditions: Homo sapiens, BJ
# [11] = cytotoxicity toward DRD oncogenic fibroblasts, dose response, cell-based, non-viral oncogenic, luminescence (AID 1934); type: functional; conditions: Homo sapiens
# BJ [12] = test: cytotoxicity toward BJ-TERT-LT-ST fibroblasts, dose response, cell-based, RAS-independent, luminescence (AID 1935); type: functional; conditions: Homo sapiens;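 also: BJ fibroblasts immortalized with TERT plus LT and ST oncogenes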
# [13] = inhibitors of firefly luciferase expression or activity, dose response, H4 neuroglioma cells, luminescence (AID 1990); type: functional, cell-based
# [14] = Luminescence Cell-Based Dose Response HTS to Identify Inhibitors of 5'UTR Stem-Loop Driven Prion Protein mRNA Translation in H4 Neuroglioblastoma Cells. [Related pubchem assays: 1827 (Project Summary), 1813 (Primary HTS)]; type: functional
# [15] = molecular target: Peroxisome proliferator-activated receptor gamma/Nuclear receptor coactivator 1 (Homo sapiens, UniProt P37231); type: functional;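 also: agonist potency as compounds enhance coactivator SRC-1 recruitment to PPARgamma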
# Paired box protein Pax-8 = Paired box protein Pax-8 (Homo sapiens, UniProt Q06710); test: inhibitors of PAX8-driven TPO luciferase reporter, dose response, RMG-I cells, cherry-pick (AID 687027); type: functional, cell-based;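 also: luciferase reporter driven by Pax8 target thyroperoxidase promoter measured by SteadyGlo luminescence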
# Sequence of Paired box protein Pax-8 (Q06710 whole entry): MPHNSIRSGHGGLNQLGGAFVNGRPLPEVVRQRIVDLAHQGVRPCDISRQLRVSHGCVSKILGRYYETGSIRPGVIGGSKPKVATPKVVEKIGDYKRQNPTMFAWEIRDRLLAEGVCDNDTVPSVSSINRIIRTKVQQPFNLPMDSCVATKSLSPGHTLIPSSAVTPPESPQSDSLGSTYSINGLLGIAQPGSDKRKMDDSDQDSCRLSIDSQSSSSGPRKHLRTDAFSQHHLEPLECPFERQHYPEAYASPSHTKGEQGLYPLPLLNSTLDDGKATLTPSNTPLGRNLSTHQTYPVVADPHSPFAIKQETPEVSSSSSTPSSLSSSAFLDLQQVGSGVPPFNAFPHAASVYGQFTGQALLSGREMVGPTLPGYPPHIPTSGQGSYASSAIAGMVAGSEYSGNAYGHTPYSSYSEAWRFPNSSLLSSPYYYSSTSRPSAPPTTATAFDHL
# [16] = inhibitors of SNCA 5'UTR-driven reporter translation, confirmation, H4 neuroglioma cells, luminescence (AID 1988); type: functional, cell-based
# [17] = molecular target: Peroxisome proliferator-activated receptor gamma/Nuclear receptor coactivator 3 (Homo sapiens, UniProt P37231); type: functional;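 also: agonist potency for raising coactivator recruitment to the receptor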
# Cytochrome P450 3A4 = Cytochrome P450 3A4 (Homo sapiens, UniProt P08684);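 also: CYP3A4 tested as one member of a cytochrome P450 panel screen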
# Sequence of Cytochrome P450 3A4 (P08684 whole entry): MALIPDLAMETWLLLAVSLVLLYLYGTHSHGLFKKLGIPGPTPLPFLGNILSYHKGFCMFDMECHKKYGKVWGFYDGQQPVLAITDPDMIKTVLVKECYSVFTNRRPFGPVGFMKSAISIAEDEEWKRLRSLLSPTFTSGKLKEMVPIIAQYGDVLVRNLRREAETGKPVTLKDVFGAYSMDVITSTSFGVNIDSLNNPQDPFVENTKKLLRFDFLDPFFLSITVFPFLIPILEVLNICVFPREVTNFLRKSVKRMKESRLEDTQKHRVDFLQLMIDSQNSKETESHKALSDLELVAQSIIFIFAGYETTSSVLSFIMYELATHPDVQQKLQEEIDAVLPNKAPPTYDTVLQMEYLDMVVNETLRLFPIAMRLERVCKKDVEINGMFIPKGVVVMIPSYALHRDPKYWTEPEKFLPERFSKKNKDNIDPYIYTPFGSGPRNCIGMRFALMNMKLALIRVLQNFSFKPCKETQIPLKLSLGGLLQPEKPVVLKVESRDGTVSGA
# [18] = molecular target: Peroxisome proliferator-activated receptor gamma/Nuclear receptor coactivator 2 (Homo sapiens, UniProt P37231); type: functional;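 also: agonist potency for raising coactivator recruitment to the receptor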
# Sequence of Peroxisome proliferator-activated receptor gamma/Nuclear receptor coactivator 2 (P37231 whole entry, the tested form may be a part): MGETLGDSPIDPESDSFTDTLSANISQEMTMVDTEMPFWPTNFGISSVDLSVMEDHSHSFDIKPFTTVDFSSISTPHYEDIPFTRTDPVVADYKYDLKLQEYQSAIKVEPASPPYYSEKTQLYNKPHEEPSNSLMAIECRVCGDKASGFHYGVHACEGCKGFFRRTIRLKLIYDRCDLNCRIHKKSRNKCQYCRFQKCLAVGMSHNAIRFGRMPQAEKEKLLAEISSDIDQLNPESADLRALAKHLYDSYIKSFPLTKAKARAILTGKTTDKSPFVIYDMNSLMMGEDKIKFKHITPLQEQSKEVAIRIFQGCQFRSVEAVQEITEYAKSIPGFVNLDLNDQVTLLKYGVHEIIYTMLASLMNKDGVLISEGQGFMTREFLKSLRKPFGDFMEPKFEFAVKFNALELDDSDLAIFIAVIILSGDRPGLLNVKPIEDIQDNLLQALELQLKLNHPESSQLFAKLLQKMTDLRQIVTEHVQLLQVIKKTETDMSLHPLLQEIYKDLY
# Sequence of Peroxisome proliferator-activated receptor gamma/Nuclear receptor coactivator 2 (Q15596 whole entry, further chain, the tested form may be a part): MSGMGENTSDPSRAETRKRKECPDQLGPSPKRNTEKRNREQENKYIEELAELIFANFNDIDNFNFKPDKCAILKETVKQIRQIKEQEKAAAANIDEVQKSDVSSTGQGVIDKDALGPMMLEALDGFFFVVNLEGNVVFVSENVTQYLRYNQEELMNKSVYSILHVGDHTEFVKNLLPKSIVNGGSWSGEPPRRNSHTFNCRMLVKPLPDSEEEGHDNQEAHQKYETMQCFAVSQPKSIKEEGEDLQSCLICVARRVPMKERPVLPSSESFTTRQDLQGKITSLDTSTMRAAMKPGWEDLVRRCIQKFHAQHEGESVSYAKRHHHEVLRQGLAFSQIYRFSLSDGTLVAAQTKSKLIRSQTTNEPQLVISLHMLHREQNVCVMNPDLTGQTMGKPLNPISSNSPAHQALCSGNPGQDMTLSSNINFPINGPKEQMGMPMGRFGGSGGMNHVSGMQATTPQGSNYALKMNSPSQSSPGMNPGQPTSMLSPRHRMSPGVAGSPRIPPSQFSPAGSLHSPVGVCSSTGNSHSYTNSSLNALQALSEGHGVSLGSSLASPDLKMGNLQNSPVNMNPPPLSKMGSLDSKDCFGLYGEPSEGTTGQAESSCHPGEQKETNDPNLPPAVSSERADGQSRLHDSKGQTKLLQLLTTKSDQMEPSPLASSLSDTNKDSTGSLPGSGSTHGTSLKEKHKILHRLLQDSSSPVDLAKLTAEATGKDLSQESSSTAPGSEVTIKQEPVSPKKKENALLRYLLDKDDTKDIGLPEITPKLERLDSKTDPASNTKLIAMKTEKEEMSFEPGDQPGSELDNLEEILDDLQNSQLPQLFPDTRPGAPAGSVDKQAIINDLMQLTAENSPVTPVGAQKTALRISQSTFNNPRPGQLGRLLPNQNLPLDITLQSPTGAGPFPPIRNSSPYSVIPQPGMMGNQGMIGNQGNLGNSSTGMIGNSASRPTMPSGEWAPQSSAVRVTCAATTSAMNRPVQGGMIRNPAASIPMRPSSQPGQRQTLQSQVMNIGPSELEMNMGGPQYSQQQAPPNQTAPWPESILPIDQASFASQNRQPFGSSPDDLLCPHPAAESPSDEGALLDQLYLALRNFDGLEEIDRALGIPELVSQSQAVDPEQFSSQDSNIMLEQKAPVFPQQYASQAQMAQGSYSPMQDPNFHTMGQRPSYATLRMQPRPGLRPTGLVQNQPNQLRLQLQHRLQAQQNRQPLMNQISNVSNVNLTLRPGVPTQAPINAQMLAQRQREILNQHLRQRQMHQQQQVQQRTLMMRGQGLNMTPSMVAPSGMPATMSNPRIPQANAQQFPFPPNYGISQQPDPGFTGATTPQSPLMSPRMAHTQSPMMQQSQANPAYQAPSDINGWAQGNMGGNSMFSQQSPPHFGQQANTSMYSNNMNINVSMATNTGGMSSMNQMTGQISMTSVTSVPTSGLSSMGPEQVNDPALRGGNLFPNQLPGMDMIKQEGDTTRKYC
# [19] = molecular target: T4, Hepatocyte nuclear factor 4-alpha (Homo sapiens, UniProt P41235); type: functional, cell-based;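 also: biochemical luminescence-based dose-response counterscreen measuring inhibition of HNF4 dimerization, run alongside a screen for blockers of ABHD5–perilipin-5 interaction; split luciferase complementation of HNF4 fusion proteins in cell lysate measuring dimerization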
# T4 sequence (P41235 whole entry): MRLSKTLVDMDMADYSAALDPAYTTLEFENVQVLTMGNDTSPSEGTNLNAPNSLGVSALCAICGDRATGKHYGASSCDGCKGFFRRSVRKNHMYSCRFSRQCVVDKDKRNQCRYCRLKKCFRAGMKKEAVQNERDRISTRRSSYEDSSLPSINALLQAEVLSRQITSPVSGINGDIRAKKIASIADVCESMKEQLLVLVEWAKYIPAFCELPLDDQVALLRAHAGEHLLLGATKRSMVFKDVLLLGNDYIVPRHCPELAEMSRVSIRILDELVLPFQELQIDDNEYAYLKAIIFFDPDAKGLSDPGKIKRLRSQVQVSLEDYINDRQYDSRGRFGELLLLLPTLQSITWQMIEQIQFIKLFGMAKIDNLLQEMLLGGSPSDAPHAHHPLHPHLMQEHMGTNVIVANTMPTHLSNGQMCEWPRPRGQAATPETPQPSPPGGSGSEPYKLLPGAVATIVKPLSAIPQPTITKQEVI
# Vero [20] = test: cells; type: functional; conditions: Chlorocebus sabaeus
# [21] = miR-122 activators in hepatoma reporter cells, dose response, cell-based, Huh7 psiCHECK-miR122, Renilla luciferase, cherry-picked (AID 651956); type: functional;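 also: huh7 hepatoma cells stably carrying a psiCHECK-2 miR-122 sensor plasmid; renilla luciferase signal reporting endogenous miR-122 activity after 48 h compound exposure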
# Escherichia coli = test: microbe, parasite or virus in culture
# [22] = molecular target: FAD-linked sulfhydryl oxidase ALR (Homo sapiens, UniProt P55789); test: inhibitors of human ALR sulfhydryl oxidase, dose response, biochemical, H2O2 detection, luminescence, cherry-pick (AID 493248)
# Sequence of FAD-linked sulfhydryl oxidase ALR (P55789 whole entry): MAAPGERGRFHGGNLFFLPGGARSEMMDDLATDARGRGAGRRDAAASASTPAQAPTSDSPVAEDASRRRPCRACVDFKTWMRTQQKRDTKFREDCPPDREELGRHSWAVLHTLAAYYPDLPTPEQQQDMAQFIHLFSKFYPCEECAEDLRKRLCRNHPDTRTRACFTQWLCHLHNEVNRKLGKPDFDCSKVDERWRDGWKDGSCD
# Genome polyprotein = Genome polyprotein (dengue virus type 2, UniProt P29990); test: Dengue-2 NS5 methyltransferase inhibitors, primary screen, biochemical, confirmation dose response (AID 588689); type: functional
# Vero [23] = test: Vero cell cytotoxicity, cytotoxicity control for flavivirus capping enzyme inhibitors (AID 588742); type: functional; conditions: Chlorocebus sabaeus
# [24] = cytotoxicity toward NIH3T3 fibroblasts, dose response, counter-screen, cell-based, ATP luminescence, mouse fibroblasts (AID 2010); type: functional;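 also: cells exposed to compound for about 90 hours before reading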
# [25] = molecular target: Dual specificity tyrosine-phosphorylation-regulated kinase 1A (Rattus norvegicus, UniProt Q63470); type: biochemical, Homo sapiens
# [26] = inhibitors of intracellular T. cruzi replication, confirmation, NIH3T3 host cells, beta-gal luminescence (AID 2044); type: functional, cell-based;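 also: intracellular parasites grown in NIH/3T3 mouse fibroblasts as host cells; luminescent beta-galactosidase reporter signal from transgenic T. cruzi replicating inside host cells; inhibitors lower the luminescence signal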
compound,measurement,setting,value
O=C(COC(=O)c1ccccc1C(=O)N1CCN(c2ccccc2)CC1)NCc1ccccc1,EC50,[1],> 99 µM (inactive)
same,EC50,[2],> 99 µM (inactive)
O=C(N[C@@H]1C/C=C\C[C@@H](CC(=O)N(CCO)Cc2ccccc2)C(=O)N[C@@H](c2ccccc2)COC1=O)OCC1c2ccccc2-c2ccccc21,IC50,Protein Wnt-3a,12.3 µM (active)
CC(=O)N1CC[C+]([N-]NS(=O)(=O)c2cccc([N+](=O)[O-])c2)CC1,EC50,[1],23.9 µM (inactive)
same,EC50,[2],> 99 µM (inactive)
O=C(Nc1nnc(-c2ccco2)o1)c1ccc(Cl)cc1,EC50,Streptococcus,15.6 µM (active)
same,EC50,[3],0.983 µM (active)
same,EC50,[4],> 180 µM (inactive)
same,EC50,[5],> 150 µM (inactive)
same,EC50,Streptokinase A,> 150 µM (not active)
same,EC50,[6],> 150 µM (inactive)
same,EC50,[7],0.9 µM (active)
C[C@@H]1C=CC(=O)O[C@@H]1c1ccc(C(F)(F)F)cc1,EC50,BJ [8],0.409 µM (active)
same,EC50,BJ [9],49.6 µM (active)
same,EC50,BJ [10],5.53 µM (active)
same,EC50,[11],2.27 µM (active)
same,EC50,BJ [12],12.4 µM (active)
FC(F)(F)c1nnc2c(Sc3ccc(Cl)cc3)nc3ccccc3n12,EC50,BJ [8],0.565 µM (active)
same,EC50,BJ [9],3.28 µM (inconclusive)
same,EC50,[13],> 120 µM (not active)
same,EC50,[14],9.77 µM (active)
same,EC50,[15],24.3 µM (not active)
same,AC50,Paired box protein Pax-8,1.27 µM (active)
same,EC50,BJ [10],25.2 µM (active)
same,EC50,[16],> 120 µM (not active)
same,EC50,[11],9.34 µM (inconclusive)
same,EC50,[17],32.3 µM (not active)
same,EC50,BJ [12],5.54 µM (inconclusive)
same,AC50,Cytochrome P450 3A4,inconclusive
same,EC50,[18],21.7 µM (not active)
Cc1cccc(C)c1NC(=O)C(c1ccccc1)n1c(=O)c(-c2ccco2)nc2ccccc21 (centres undefined),IC50,[19],3.81 µM (active)
COCCCNC1=NN=C(c2cc(C)n(Cc3ccco3)c2C)CS1,EC50,BJ [8],0.201 µM (active)
same,CC50,Vero [20],2.27 µM (active)
Cc1ccc(S(=O)(=O)N2CCN(CC(=O)NC(=O)NCc3ccccc3)CC2)cc1C,EC50,[1],> 99 µM (inactive)
same,EC50,[2],> 99 µM (inactive)
CCS(=O)(=O)Nc1ccc2c(c1)C(=O)N(C)C[C@@H](OC)[C@H](C)CN(CC1CCCC1)[C@H](C)CO2,AC50,[21],23.6 µM (active)
Cc1cc(C(C#N)c2ccccc2F)n2ncnc2n1 (centres undefined),AC50,Escherichia coli,36.4 µM (active)
same,AC50,[22],34.3 µM (active)
same,EC50,[4],> 180 µM (inactive)
same,EC50,[5],> 160 µM (inactive)
same,EC50,[6],> 150 µM (inconclusive)
same,EC50,[7],1.28 µM (active)
CCCCCCCCn1c(=O)c(C(=O)OCC)c(O)c2ccccc21,IC50,Genome polyprotein,77.2 µM (active)
same,CC50,Vero [23],> 40 µM (active)
CC[n+]1ccn(C)c1P(c1ccccc1)c1ccccc1,IC50,Protein Wnt-3a,6.99 µM (active)
CC(C)(C)NC(=O)C(c1cccc2ccccc12)n1c(=O)c(-c2ccco2)nc2ccccc21 (centres undefined),IC50,[19],2.27 µM (active)
O=C1NC(=O)/C(=C\c2ccc(Br)o2)S1,EC50,[24],> 60 µM (not active)
same,AC50,[25],4.62 µM (active)
same,EC50,[26],21.7 µM (active)
same,EC50,[4],> 180 µM (inactive)
same,EC50,[5],> 150 µM (inactive)
same,EC50,[6],87.3 µM (inconclusive)
same,EC50,[7],1.3 µM (active)
CCC(C(=O)OCCN(CC)CC)c1ccccc1 (centres undefined),IC50,[19],23.9 µM (inactive)
